The assay addresses T1, soybean lipoxygenase (LOX) (Glycine max, UniProt P08170).
T1 construct: gene LOX1.1
T1 sequence (P08170 1-839): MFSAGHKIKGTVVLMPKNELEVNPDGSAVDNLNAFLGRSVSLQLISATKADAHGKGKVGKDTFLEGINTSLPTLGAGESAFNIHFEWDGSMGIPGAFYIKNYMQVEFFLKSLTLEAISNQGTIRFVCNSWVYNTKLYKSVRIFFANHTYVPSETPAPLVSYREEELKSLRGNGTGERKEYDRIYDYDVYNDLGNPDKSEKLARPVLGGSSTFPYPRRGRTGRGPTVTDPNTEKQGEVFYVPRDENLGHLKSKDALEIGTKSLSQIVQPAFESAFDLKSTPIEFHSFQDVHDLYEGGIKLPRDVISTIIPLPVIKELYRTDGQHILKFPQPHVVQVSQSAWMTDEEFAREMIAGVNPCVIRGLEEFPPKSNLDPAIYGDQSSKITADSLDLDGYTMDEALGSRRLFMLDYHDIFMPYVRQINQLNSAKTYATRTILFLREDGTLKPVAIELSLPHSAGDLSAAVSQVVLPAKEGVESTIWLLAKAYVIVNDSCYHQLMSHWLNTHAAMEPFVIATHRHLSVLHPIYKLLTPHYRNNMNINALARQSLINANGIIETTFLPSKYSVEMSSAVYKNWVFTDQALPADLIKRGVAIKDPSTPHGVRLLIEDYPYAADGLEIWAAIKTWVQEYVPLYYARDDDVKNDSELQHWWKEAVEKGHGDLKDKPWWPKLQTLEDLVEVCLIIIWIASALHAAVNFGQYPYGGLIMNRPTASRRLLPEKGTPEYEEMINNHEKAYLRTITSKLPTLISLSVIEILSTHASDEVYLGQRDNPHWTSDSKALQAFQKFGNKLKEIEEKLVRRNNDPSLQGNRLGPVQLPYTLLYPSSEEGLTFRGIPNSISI
Nature of the assay: UV assay at […] nm of sodium linoleate conversion to 13-hydroperoxylinoleic acid. It counts as biochemical. To be noted: read-out: LOX Inhibition (% or IC50 [μM]).

Structures are written as SMILES.

For orientation: IC50 means the concentration at which inhibition is half-maximal. For the compound `CC(C)(C)/[N+]([O-])=C/c1ccccc1/C=[N+](\[O-])Cc1ccccc1` [hBN9, (Z)-N-Benzyl-1-(2-((Z)-(tert-butyloxidoazaneylidene)methyl)phenyl)methanimine oxide], the IC50 was 57.5 µM.

As for `C/[N+]([O-])=C/c1ccccc1/C=[N+](\[O-])Cc1ccccc1` [hBN8, (Z)-N-Benzyl-1-(2-((Z)-(methyloxidoazaneylidene)methyl)phenyl)methanimine oxide], the IC50 was determined as 82.5 µM.
